# Reference: PubChem BioAssay (NCI)
#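 Each compound was tested at five concentrations against cells in 96-well plates for 48 hours. Here, GI50 denotes the concentration required for 50% inhibition of growth. TGI is the concentration that stops growth completely.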
# Key:
# Assay in all cases: NCI-60 cell line screen, 48 h
# [1] = test system: SW-620 colon
# [2] = test system: UO-31 renal
# [3] = test system: SNB-19 CNS
# [4] = test system: A549 NSCLC
# [5] = test system: UACC-257 melanoma
# [6] = test system: OVCAR-8 ovarian
# [7] = test system: M14 melanoma
# [8] = test system: SK-MEL-5 melanoma
# [9] = test system: HT29 colon
# [10] = test system: KM12 colon
# [11] = test system: SF-268 CNS
# [12] = test system: SK-OV-3 ovarian
# [13] = test system: HCT-116 colon
# [14] = test system: SK-MEL-2 melanoma
# [15] = test system: HOP-92 NSCLC
# [16] = test system: OVCAR-5 ovarian
# [17] = test system: LXFL 529 NSCLC
# [18] = test system: SF-295 CNS
# [19] = test system: DMS 114 small cell lung
# [20] = test system: NCI-H522 lung
# [21] = test system: IGROV1 ovarian
# [22] = test system: XF 498 CNS
# [23] = test system: M19-MEL melanoma
# [24] = test system: MOLT-4 leukemia
# [25] = test system: EKVX NSCLC
# [26] = test system: NCI-H226 lung
# [27] = test system: COLO 205 colon
# [28] = test system: HOP-62 NSCLC
# [29] = test system: DMS 273 small cell lung
# [30] = test system: CAKI-1 renal
# [31] = test system: SN12C renal
# [32] = test system: SF-539 CNS
# [33] = test system: RPMI-8226 leukemia
# [34] = test system: CCRF-CEM leukemia
# [35] = test system: NCI-H23 lung
# [36] = test system: DLD-1 colon
# [37] = test system: OVCAR-4 ovarian
# [38] = test system: 786-0 renal
# [39] = test system: RXF 393 renal
# [40] = test system: U251 CNS
# [41] = test system: LOX IMVI melanoma
# [42] = test system: TK-10 renal
# [43] = test system: K-562 leukemia
# [44] = test system: NCI-H460 lung
# [45] = test system: SK-MEL-28 melanoma
# [46] = test system: OVCAR-3 ovarian
# [47] = test system: SNB-78 CNS
# [48] = test system: MALME-3M melanoma
# [49] = test system: A498 renal
# [50] = test system: SNB-75 CNS
# [51] = test system: HOP-18 NSCLC
# [52] = test system: UACC-62 melanoma
# [53] = test system: RXF-631 renal
# [54] = test system: HL-60(TB) leukemia
# [55] = test system: HCC-2998 colon
# [56] = test system: HCT-15 colon
# [57] = test system: KM20L2 colon
# [58] = test system: ACHN renal
smiles,measurement,setting,value
CC(C)N(C(C)C)[PH+]1O[PH+](N(C(C)C)C(C)C)O[PH+](N(C(C)C)C(C)C)O[PH+](N(C(C)C)C(C)C)O1.[C-]#[O+].[C-]#[O+].[C-]#[O+].[C-]#[O+].[C-]#[O+].[C-]#[O+].[C-]#[O+].[C-]#[O+].[Mo].[Mo] (stereo unspecified),GI50,[1],> 100 µM
same,TGI,[1],> 100 µM
same,GI50,[2],> 100 µM
same,TGI,[2],> 100 µM
same,GI50,[3],> 100 µM
same,TGI,[3],> 100 µM
same,GI50,[4],> 100 µM
same,TGI,[4],> 100 µM
same,GI50,[5],> 100 µM
same,TGI,[5],> 100 µM
same,GI50,[6],> 100 µM
same,TGI,[6],> 100 µM
same,GI50,[7],> 100 µM
same,TGI,[7],> 100 µM
same,GI50,[8],> 100 µM
same,TGI,[8],> 100 µM
same,GI50,[9],> 100 µM
same,TGI,[9],> 100 µM
same,GI50,[10],> 100 µM
same,TGI,[10],> 100 µM
same,GI50,[11],> 100 µM
same,TGI,[11],> 100 µM
same,GI50,[12],> 100 µM
same,TGI,[12],> 100 µM
same,GI50,[13],> 100 µM
same,TGI,[13],> 100 µM
same,GI50,[14],> 100 µM
same,TGI,[14],> 100 µM
same,GI50,[15],> 100 µM
same,TGI,[15],> 100 µM
same,GI50,[16],> 100 µM
same,TGI,[16],> 100 µM
same,GI50,[17],> 100 µM
same,TGI,[17],> 100 µM
same,GI50,[18],> 100 µM
same,TGI,[18],> 100 µM
same,GI50,[19],> 100 µM
same,TGI,[19],> 100 µM
same,GI50,[20],> 100 µM
same,TGI,[20],> 100 µM
same,GI50,[21],> 100 µM
same,TGI,[21],> 100 µM
same,GI50,[22],> 100 µM
same,TGI,[22],> 100 µM
same,GI50,[23],> 100 µM
same,TGI,[23],> 100 µM
same,GI50,[24],> 100 µM
same,TGI,[24],> 100 µM
same,GI50,[25],> 100 µM
same,TGI,[25],> 100 µM
same,GI50,[26],> 100 µM
same,TGI,[26],> 100 µM
same,GI50,[27],> 100 µM
same,TGI,[27],> 100 µM
same,GI50,[28],> 100 µM
same,TGI,[28],> 100 µM
same,GI50,[29],> 100 µM
same,TGI,[29],> 100 µM
same,GI50,[30],> 100 µM
same,TGI,[30],> 100 µM
same,GI50,[31],> 100 µM
same,TGI,[31],> 100 µM
same,GI50,[32],> 100 µM
same,TGI,[32],> 100 µM
same,GI50,[33],> 100 µM
same,TGI,[33],> 100 µM
same,GI50,[34],> 100 µM
same,TGI,[34],> 100 µM
same,GI50,[35],> 100 µM
same,TGI,[35],> 100 µM
same,GI50,[36],> 100 µM
same,TGI,[36],> 100 µM
same,GI50,[37],> 100 µM
same,TGI,[37],> 100 µM
same,GI50,[38],> 100 µM
same,TGI,[38],> 100 µM
same,GI50,[39],> 100 µM
same,TGI,[39],> 100 µM
same,GI50,[40],> 100 µM
same,TGI,[40],> 100 µM
same,GI50,[41],> 100 µM
same,TGI,[41],> 100 µM
same,GI50,[42],> 100 µM
same,TGI,[42],> 100 µM
same,GI50,[43],> 100 µM
same,TGI,[43],> 100 µM
same,GI50,[44],> 100 µM
same,TGI,[44],> 100 µM
same,GI50,[45],> 100 µM
same,TGI,[45],> 100 µM
same,GI50,[46],> 100 µM
same,TGI,[46],> 100 µM
same,GI50,[47],> 100 µM
same,TGI,[47],> 100 µM
same,GI50,[48],> 100 µM
same,TGI,[48],> 100 µM
same,GI50,[49],> 100 µM
same,TGI,[49],> 100 µM
same,GI50,[50],> 100 µM
same,TGI,[50],> 100 µM
same,GI50,[51],> 100 µM
same,TGI,[51],> 100 µM
same,GI50,[52],> 100 µM
same,TGI,[52],> 100 µM
same,GI50,[53],> 100 µM
same,TGI,[53],> 100 µM
same,GI50,[54],> 100 µM
same,TGI,[54],> 100 µM
same,GI50,[55],> 100 µM
same,TGI,[55],> 100 µM
same,GI50,[56],> 100 µM
same,TGI,[56],> 100 µM
same,GI50,[57],> 100 µM
same,TGI,[57],> 100 µM
same,GI50,[58],> 100 µM
same,TGI,[58],> 100 µM
